# Results reported in patent publication US8202554B2, “Extract of the family dioscoreaceae and composition for preventing or treating peripheral neuropathy comprising the same” (priority 2005, dated 2012).
# Legend:
# [1] = tested on: sorbitol in the sciatic nerve; assay: Change in amount of sorbitol in sciatic nerve of diabetes-induced mouse (HPLC); assay type: in vivo, alloxan-induced diabetic ICR mice; details: diabetes-induced mice, 10 mg/kg p.o. three times per week, 2 weeks
# Procedure: The therapeutic effect of the compound according to the present invention on the neuropathy was identified by measuring a change in the amount of sorbitol in the sciatic nerve.
# 7-week old male ICR mice underwent alimentary abstinence for 18 hours, and then alloxan dissolved in a physiological saline was once injected to them by intraperitoneal injection in an amount of 160 mg/kg to induce diabetes. Mice that maintained their fasting blood sugar to 200 mg/dl or more for one week, that is, diabetes-induced mice were selected and then divided into a control group (n=3), and a compound-administered group (n=3). The control group was administered with 0.2 ml of a solution of dimethylsulfoxide:ethanol (3:1), and the compound-administered group was administered with the compound of Formula 2 dissolved in a solution of dimethylsulfoxide:ethanol (3:1) in an amount of 10 mg/kg. 7-week old male ICR mice in which diabetes was not induced were grouped as a normal group (n=3), and the normal group was administered with 0.2 ml of a solution of dimethylsulfoxide:ethanol (3:1). […] Administration-completed mice were sacrificed by cervical dislocation, and then the amount of the sorbitol in the sciatic nerve was measured by HPLC (see FIG. 8). […]
# [2] = tested on: sciatic nerve of diabetes-induced mouse; assay: Transmission speed of motor nerve and sensory nerve of sciatic nerve in diabetes-induced mouse; assay type: in vivo, alloxan-induced diabetic ICR mice; details: diabetes-induced mice, 10 mg/kg p.o. three times per week
# Procedure: The therapeutic effect of the compound according to the present invention on the diabetic neuropathy, one of the multiple neuropathies, was identified by measuring the effect of the compound according to the present invention on the transmission speed of the motor nerve and sensory nerve in the sciatic nerve.
# 7-week old male ICR mice underwent alimentary abstinence for 18 hours, and then alloxan dissolved in a physiological saline was once injected to them by intraperitoneal injection in an amount of 160 mg/kg to induce diabetes. Mice that maintained their fasting blood sugar to 200 mg/dl or more for one week, that is, diabetes-induced mice were selected and then divided into a control group (n=7), and a compound-administered group (n=7). The control group was administered with 0.2 ml of a solution of dimethylsulfoxide:ethanol (3:1), and the compound-administered group was administered with the compound of Formula 2 dissolved in a solution of dimethylsulfoxide:ethanol (3:1) in an amount of 10 mg/kg. 7-week old male ICR mice in which diabetes was not induced were grouped as a normal group (n=7), and the normal group was administered with 0.2 ml of a solution of dimethylsulfoxide:ethanol (3:1). […] Administration-completed mice were sacrificed by cervical dislocation, and then the skin and muscle in the femoral region were quickly removed. Then, left and right sciatic nerves were respectively separated in a length of 20 mm or more and stored in a physiological saline while air flows through the physiological saline. The separated sciatic nerves were placed on a 20 mm round measurement plate. Then, a sensor and a stimulating probe were connected to respective neuroterminals and the electrical conductivity was measured using a digital storage oscilloscope to assess the nerve transmission speed (see FIGS. 5 and 6.)
# In general, the myelin is a phospholipid membrane surrounding axons with several layers, and also called as myelin sheath. […]
# [3] = tested on: endogenous nerve growth factor; assay: Level of nerve growth factor in mouse serum (ELISA); assay type: in vivo; details: normal male ICR mice, 10 mg/kg orally once, after 24 hours
# Procedure: The compound of Formula 2 was dissolved in 0.2 ml of a solution of dimethyl-sulfoxide:ethanol (3:1), and then orally administered once to 7-week old male ICR mice (n=7) in an amount of 10 mg/kg. After 24 hours, the amount of an endogenous nerve growth factor was measured by ELISA. As a control group, an ICR mouse was orally administered once with 0.2 ml of the dimethylsulfoxide:ethanol (3:1). Then, the amount of a nerve growth factor in the control group was measured in the same manner as described above.
# [4] = tested on: PC 12 cell; assay: Measurement of neurite outgrowth; assay type: cell-based; details: PC12 cells, neurite length measured after 48 hours, vs ethanol control
# Procedure: In an incubator with conditions including 5% CO2 and a temperature of 37° C., PC 12 cell (pheochromocytoma, ATCC Number: CRL-1721) was cultured in a RPMI 1640 medium supplemented with horse serum (10%, v/v), fetal bovine serum (5%, v/v), and 1% penicillin-streptomycin
# In order to find the effect of the compound of Formula 2 on the neurite outgrowth, the mediums supplemented with 2% horse serum, 1% fetal bovine serum, and 1% penicillin-streptomycin were added to each 6-well plate coated with poly-d-lysine and then the PC12 cells were inoculated in 5×10^4 cells each well. After 24 hours, these wells were treated with 10 □/ml of ethanol, 10 □/□ of the compound of Formula 2, and 50 ng/□ of a nerve growth factor (R&D system, USA), respectively. Then, after 48 hours, the length of the neurite was measured using an inverted image contrast microscope (CK-2, Olympus, USA) (See FIG. 1 and FIG. 2)
# [5] = tested on: sciatic nerve of diabetes-induced mouse; assay: Histological comparison of sciatic nerve of diabetes-induced mouse; assay type: in vivo, alloxan-induced diabetic ICR mice; details: diabetes-induced mice, compound 10 mg/kg p.o. three times per week, 2 months; toluidine blue, 600x/1200x
# Procedure: The therapeutic effect of the compound according to the present invention on the neuropathy was identified by measuring a histological change of the sciatic nerve.
# 7-week old male ICR mice underwent alimentary abstinence for 18 hours, and then alloxan dissolved in a physiological saline was once injected to them by intraperitoneal injection in an amount of 160 mg/kg to induce diabetes. Mice that maintained their fasting blood sugar to 200 mg/dl or more for one week, that is, diabetes-induced mice were selected and then divided into a control group (n=5), an extract-administered group (n=5), and a compound-administered group (n=3). The control group was […] with 0.2 ml of a solution of dimethylsulfoxide:ethanol (3:1), the extract-administered group was administered with the extract obtained according to Example 1 dissolved in a solution of dimethylsulfoxide:ethanol (3:1) in an amount of 100 mg/kg, and the compound-administered group was administered with the compound of Formula 2 dissolved in a solution of dimethylsulfoxide:ethanol (3:1) in an amount of 10 mg/kg. All groups were treated three times by oral administration per one week, and the entire administration period was 2 months. […]
# [6] = tested on: endogenous nerve growth factor; assay: Level of nerve growth factor in serum of diabetes-induced mouse (ELISA); assay type: in vivo, alloxan-induced diabetic ICR mice; details: diabetes-induced mice, compound 10 mg/kg p.o., three times per week, one month
# Procedure: An alloxan-induced diabetic mouse was prepared as an animal model having diabetic neuropathy, one of the multiple neuropathies.
# 7-week old male ICR mice underwent alimentary abstinence for 18 hours, and then alloxan dissolved in a physiological saline was once injected to them by intraperitoneal injection in an amount of 160 mg/kg to induce diabetes. Mice that maintained their fasting blood sugar to 200 mg/dl or more for one week, that is, diabetes-induced mice were selected and then divided into a control group (n=10), an extract-administered group (n=10), and a compound-administered group (n=10). The control group was administered with 0.2 ml of a solution of dimethylsulfoxide:ethanol (3:1), the extract-administered group was administered with the extract obtained according to Example 1 dissolved in a solution of dimethylsulfoxide:ethanol (3:1) in an amount of 100 mg/kg, and the compound-administered group was administered with the compound of Formula 2 dissolved in a solution of dimethylsulfoxide:ethanol (3:1) in an amount of 10 mg/kg. The all groups were orally administered three times per one week, and the entire administration period was one month. The amount of an endogenous nerve growth factor in the serum was measured by ELISA. […]
# [7] = tested on: endogenous nerve growth factor; assay: Level of nerve growth factor in sciatic nerve of diabetes-induced mouse (ELISA); assay type: in vivo, alloxan-induced diabetic ICR mice; details: diabetes-induced mice, 10 mg/kg P.O three times per week, one month
# Procedure: 7-week old male ICR mice underwent alimentary abstinence for 18 hours, and then alloxan dissolved in a physiological saline was once injected to them by intraperitoneal injection in an amount of 160 mg/kg to induce diabetes. Mice that maintained their fasting blood sugar to 200 mg/dl or more for one week, that is, diabetes-induced mice were selected and then divided into a control group (n=5), and a compound-administered group (n=5). The control group was administered with 0.2 ml of a solution of dimethylsulfoxide:ethanol (3:1), and the compound-administered group was administered with the compound of Formula 2 dissolved in a solution of dimethylsulfoxide:ethanol (3:1) in an amount of 10 mg/kg. The all groups were orally administered three times per one week, and the entire administration period was one month. The amount of an endogenous nerve growth factor in the sciatic nerve was measured by ELISA (see FIG. 7)
# Accordingly, it is considered that the results shown in FIGS. 5 and 6 result from the nerve protecting function of the nerve growth factor.
Molecule,"sorbitol in the sciatic nerve, lower than diabetes-induced control group [1] [%]","transmission speed of the sensory nerve, higher than diabetes-induced control group ([2]; one month) [%]","transmission speed of the motor nerve, higher than control group ([2]; two months) [%]","transmission speed of the sensory nerve, higher than control group ([2]; two months) [%]",nerve growth factor in the serum relative to control group [3],neurite outgrowth ([4]; 10 □/□ of the compound),histology of axon and myelin in the central part of the sciatic nerve [5],endogenous nerve growth factor in the serum relative to vehicle control group [6],"nerve growth factor in the sciatic nerve, higher than vehicle control group [7]",neurite outgrowth ([4]; 50 ng/□ of nerve growth factor)
"C[C@@H]1CC[C@@]2(OC1)O[C@H]1C[C@H]3[C@@H]4CC=C5C[C@@H](O)CC[C@]5(C)[C@H]4CC[C@]3(C)[C@H]1[C@@H]2C [compound of Formula 2, 3beta, 25R-spirost-5-en-3-ol]",10,25,40,45,about 2.5 times,neurite outgrowth was induced,clearly observed,four,about 30%,–
"nerve growth factor: nerve growth factor (R&D system, USA), positive control for neurite outgrowth [reference compound]",–,–,–,–,–,–,–,–,–,neurite outgrowth was induced
